This passage reports T/C results from PubChem BioAssay AID256 (DTP/NCI, 2004).

The subject of the assay is CD2F1 mice, L1210 leukemia ip, survival T/C. Kind of assay: NCI In Vivo Anticancer Drug Screen. Data for tumor model L1210 Leukemia (intraperitoneal) in CD2F1 (CDF1) mice. The settings on record: higher = longer survival. The method, boiled down:
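Each value reflects a quotient of treated over vehicle control outcomes in mice with a transplanted tumor.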

Setting [1] is: endpoint: mean survival time, dose: 100.0 mg/kg/injection, schedule: Q04DX003 (ip), vehicle: saline with Tween-80.
Setting [2] is: endpoint: mean survival time, dose: 200.0 mg/kg/injection, schedule: Q04DX003 (ip), vehicle: saline with Tween-80.
[3] abbreviates: endpoint: mean survival time, dose: 400.0 mg/kg/injection, schedule: Q04DX003 (ip), vehicle: saline with Tween-80.

“And” between values parts separate entries of the source, which are not always exact repeats. Identical values can stand only once. Inconclusive results and toxic doses are left out.

As to `CN1N=C(N)c2cn(C3OC(COP(=O)(O)O)C(O)C3O)c3ncnc1c23` (stereo unspecified), the T/C was 123 % of control (endpoint: mean survival time, dose: 6.25 mg/kg/injection, schedule: Q01DX009 (ip), vehicle: water); 109 % of control (endpoint: mean survival time, dose: 7.81 mg/kg/injection, schedule: Q01DX005 (iv), vehicle: water); 150 % of control (endpoint: mean survival time, dose: 10.0 mg/kg/injection, schedule: Q01DX005 (ip), vehicle: water); 112 % of control (endpoint: mean survival time, dose: 11.73 mg/kg/injection, schedule: Q01DX005 (iv), vehicle: water); 155 % of control (endpoint: mean survival time, dose: 12.5 mg/kg/injection, schedule: Q01DX009 (ip), vehicle: water); 114 % of control (endpoint: mean survival time, dose: 15.63 mg/kg/injection, schedule: Q01DX005 (iv), vehicle: water). Besides, the T/C reads like this: (endpoint: mean survival time, dose: 20.0 mg/kg/injection, schedule: Q01DX005 (ip), vehicle: water) 152 % of control; (endpoint: mean survival time, dose: 23.45 mg/kg/injection, schedule: Q01DX005 (iv), vehicle: water) 119 % of control; (endpoint: mean survival time, dose: 23.45 mg/kg/injection, schedule: Q01DX009 (ip), vehicle: water) 153 % of control; (endpoint: mean survival time, dose: 31.25 mg/kg/injection, schedule: Q01DX009 (ip), vehicle: water) 159 % of control; (endpoint: mean survival time, dose: 40.0 mg/kg/injection, schedule: Q01DX005 (ip), vehicle: water) 157 % of control and 163 % of control; (endpoint: mean survival time, dose: 46.9 mg/kg/injection, schedule: Q01DX005 (iv), vehicle: water) 151 % of control. The T/C is 156 % of control and 174 % of control (endpoint: mean survival time, dose: 46.9 mg/kg/injection, schedule: Q01DX009 (ip), vehicle: water); 157 % of control (endpoint: mean survival time, dose: 62.5 mg/kg/injection, schedule: Q01DX005 (iv), vehicle: water); 161 % of control (endpoint: mean survival time, dose: 62.5 mg/kg/injection, schedule: Q01DX009 (ip), vehicle: water); 163 % of control and 195 % of control (endpoint: mean survival time, dose: 80.0 mg/kg/injection, schedule: Q01DX005 (ip), vehicle: water); 156 % of control (endpoint: median survival time, dose: 6.25 mg/kg/injection, schedule: Q03HX024 (ip), vehicle: alkali diluted with water); 97 % of control (endpoint: median survival time, dose: 12.5 mg/kg/injection, schedule: Q03HX024 (ip), vehicle: alkali diluted with water). The T/C reads like this: (endpoint: median survival time, dose: 24.0 mg/kg/injection, schedule: Q01DX005 (ip), vehicle: water) 150 % of control; (endpoint: median survival time, dose: 24.0 mg/kg/injection, schedule: Q01DX009 (ip), vehicle: water) 157 % of control; (endpoint: median survival time, dose: 25.0 mg/kg/injection, schedule: Q01DX001 (ip), vehicle: alkali diluted with water) 97 % of control; (endpoint: median survival time, dose: 25.0 mg/kg/injection, schedule: Q01DX009 (ip), vehicle: alkali diluted with water) 168 % of control; (endpoint: median survival time, dose: 25.0 mg/kg/injection, schedule: Q04DX003 (ip), vehicle: alkali diluted with water) 151 % of control; (endpoint: median survival time, dose: 35.0 mg/kg/injection, schedule: Q01DX001 (ip), vehicle: water) 120 % of control. In addition, the T/C by setting is: (endpoint: median survival time, dose: 35.0 mg/kg/injection, schedule: Q01DX005 (oral), vehicle: water) 95 % of control; (endpoint: median survival time, dose: 35.0 mg/kg/injection, schedule: Q01DX009 (ip), vehicle: water) 167 % of control; (endpoint: median survival time, dose: 35.0 mg/kg/injection, schedule: Q01DX009 (oral), vehicle: water) 108 % of control; (endpoint: median survival time, dose: 50.0 mg/kg/injection, schedule: Q01DX001 (ip), vehicle: alkali diluted with water) 96 % of control; (endpoint: median survival time, dose: 50.0 mg/kg/injection, schedule: Q01DX009 (ip), vehicle: alkali diluted with water) 187 % of control; (endpoint: median survival time, dose: 50.0 mg/kg/injection, schedule: Q04DX003 (ip), vehicle: alkali diluted with water) 151 % of control. Further, the T/C was 112 % of control (endpoint: median survival time, dose: 53.0 mg/kg/injection, schedule: Q01DX001 (ip), vehicle: water); 105 % of control (endpoint: median survival time, dose: 53.0 mg/kg/injection, schedule: Q01DX001 (oral), vehicle: water); 155 % of control (endpoint: median survival time, dose: 53.0 mg/kg/injection, schedule: Q01DX005 (iv), vehicle: water); 101 % of control (endpoint: median survival time, dose: 53.0 mg/kg/injection, schedule: Q01DX005 (oral), vehicle: water); 182 % of control (endpoint: median survival time, dose: 53.0 mg/kg/injection, schedule: Q01DX009 (ip), vehicle: water); 101 % of control (endpoint: median survival time, dose: 53.0 mg/kg/injection, schedule: Q01DX009 (oral), vehicle: water). Moreover, the T/C is 103 % of control (endpoint: median survival time, dose: 80.0 mg/kg/injection, schedule: Q01DX001 (oral), vehicle: water); 155 % of control (endpoint: median survival time, dose: 80.0 mg/kg/injection, schedule: Q01DX005 (ip), vehicle: water); 158 % of control (endpoint: median survival time, dose: 80.0 mg/kg/injection, schedule: Q01DX005 (iv), vehicle: water); 102 % of control (endpoint: median survival time, dose: 80.0 mg/kg/injection, schedule: Q01DX005 (oral), vehicle: water); 185 % of control (endpoint: median survival time, dose: 80.0 mg/kg/injection, schedule: Q01DX009 (ip), vehicle: water); 106 % of control (endpoint: median survival time, dose: 80.0 mg/kg/injection, schedule: Q01DX009 (oral), vehicle: water). The T/C was 96 % of control (endpoint: median survival time, dose: 100.0 mg/kg/injection, schedule: Q01DX001 (ip), vehicle: alkali diluted with water); 200 % of control (endpoint: median survival time, dose: 100.0 mg/kg/injection, schedule: Q01DX009 (ip), vehicle: alkali diluted with water); 104 % of control (endpoint: median survival time, dose: 100.0 mg/kg/injection, schedule: Q01DX009 (oral), vehicle: alkali diluted with water); 162 % of control (endpoint: median survival time, dose: 100.0 mg/kg/injection, schedule: Q04DX003 (ip), vehicle: alkali diluted with water); 105 % of control (endpoint: median survival time, dose: 120.0 mg/kg/injection, schedule: Q01DX001 (oral), vehicle: water); 161 % of control (endpoint: median survival time, dose: 120.0 mg/kg/injection, schedule: Q01DX005 (ip), vehicle: water). Also, the T/C runs as follows: (endpoint: median survival time, dose: 120.0 mg/kg/injection, schedule: Q01DX005 (oral), vehicle: water) 105 % of control; (endpoint: median survival time, dose: 120.0 mg/kg/injection, schedule: Q01DX009 (ip), vehicle: water) 150 % of control; (endpoint: median survival time, dose: 120.0 mg/kg/injection, schedule: Q01DX009 (oral), vehicle: water) 103 % of control; (endpoint: median survival time, dose: 180.0 mg/kg/injection, schedule: Q01DX001 (oral), vehicle: water) 101 % of control; (endpoint: median survival time, dose: 180.0 mg/kg/injection, schedule: Q01DX005 (oral), vehicle: water) 107 % of control; (endpoint: median survival time, dose: 180.0 mg/kg/injection, schedule: Q01DX009 (oral), vehicle: water) 102 % of control. The T/C by setting is: (endpoint: median survival time, dose: 200.0 mg/kg/injection, schedule: Q01DX009 (oral), vehicle: alkali diluted with water) 103 % of control; (endpoint: median survival time, dose: 200.0 mg/kg/injection, schedule: Q04DX003 (ip), vehicle: alkali diluted with water) 150 % of control; (endpoint: median survival time, dose: 270.0 mg/kg/injection, schedule: Q01DX001 (oral), vehicle: water) 101 % of control; (endpoint: median survival time, dose: 270.0 mg/kg/injection, schedule: Q01DX005 (oral), vehicle: water) 110 % of control; (endpoint: median survival time, dose: 270.0 mg/kg/injection, schedule: Q01DX009 (oral), vehicle: water) 112 % of control; (endpoint: median survival time, dose: 400.0 mg/kg/injection, schedule: Q01DX009 (oral), vehicle: alkali diluted with water) 114 % of control. Further, the T/C (endpoint: median survival time, dose: 405.0 mg/kg/injection, schedule: Q01DX001 (oral), vehicle: water) is 102 % of control; the T/C (endpoint: median survival time, dose: 800.0 mg/kg/injection, schedule: Q01DX009 (oral), vehicle: alkali diluted with water) was 120 % of control; the T/C (endpoint: median survival time, dose: 1600.0 mg/kg/injection, schedule: Q01DX009 (oral), vehicle: alkali diluted with water) is 122 % of control.
With `CC1(C)C/C(=C\c2ccccc2)C(=O)c2ccccc21`, the T/C by setting is: (endpoint: mean survival time, dose: 100.0 mg/kg/injection, schedule: Q01DX009 (ip), vehicle: other) 104 % of control; (endpoint: mean survival time, dose: 200.0 mg/kg/injection, schedule: Q01DX009 (ip), vehicle: other) 112 % of control; (endpoint: mean survival time, dose: 400.0 mg/kg/injection, schedule: Q01DX009 (ip), vehicle: other) 96 % of control.
As to `O=C(O)CC(NCc1ccccc1)C(=O)O` (stereo unspecified), the T/C is, setting by setting: under setting [1], 103 % of control; under setting [2], 100 % of control; under setting [3], 97 % of control.
Turning to `CC1(C(Cl)(Cl)Cl)C=CC(=O)C=C1`, the T/C by setting is: (endpoint: mean survival time, dose: 50.0 mg/kg/injection, schedule: Q04DX003 (ip), vehicle: saline with Tween-80) 101 % of control; under setting [1], 101 % of control; under setting [2], 97 % of control.
Consider `Cc1ccc(C(O)(c2ccccc2)c2ccccc2C(=O)Nc2ccccc2)cc1` (stereo unspecified), for which the T/C is 88 % of control under setting [1], 90 % of control under setting [2] and 95 % of control under setting [3].
As to `c1ccc(C(Nc2ncnc3nncnc23)c2ccccc2)cc1`, the T/C (endpoint: mean survival time, dose: 75.0 mg/kg/injection, schedule: Q01DX001 (ip), vehicle: other) is 94 % of control.
